From article PMC10394516, “The pharmacokinetic profile of brensocatib and its effect on pharmacodynamic biomarkers including NE, PR3, and CatG in various rodent species” (Frontiers in Pharmacology, 2023)
Where two headings read alike, the source gives them in different places.

Experiments:
[1] = test system: CatG; design: method as in Cipolla et al., 2023; details: Phase 2 trial in NCFBE (WILLOW); ref Cipolla et al., 2023; cited from earlier work
[2] = Plasma PK of brensocatib, BID vs QD oral dosing, C57BL/6 mice; format: in vivo; details: both sexes; for AUC(0-t): first 24 h
Method: A dose frequency study was performed in male and female mice (C57BL/6 & BALB/c) and in male and female rats (Sprague Dawley & Wistar) investigating twice daily (BID) versus once daily (QD) brensocatib administration.
Briefly, animals were weighed and randomized into different treatment groups. In total, three different dosing levels of brensocatib were tested in each species and strain; each QD dosing level was equivalent to 1.5-times the matching daily BID dose. For BID dosing, the second daily dose was administered 8-h post the morning dose. C57BL/6 mice were dosed either BID or QD for 7 consecutive days at 0/0, 0.5/0.75, 2/3, and 20/30 mg/kg/day (BID/QD). BALB/c mice were dosed for 7 consecutive days at 0/0, 0.2/0.3, 2/3, and 20/30 mg/kg/day (BID/QD). SD rats were dosed for 9 consecutive days at 0/0, 0.2/0.3, 2/3, and 20/30 mg/kg/day (BID/QD). Wistar rats were dosed for 7 consecutive days at 0/0, 0.2/0.3, 2/3, and 20/30 mg/kg/day (BID/QD).
For sparse PK analysis via LC-MS/MS, plasma was collected from animals during the first 24 h of dosing at prescribed timepoints. The timepoints included 1, 3, 8, and 24 h post initial dose for QD groups, and 1, 3, 8, 9, 11, and 24 h post initial dose for BID groups. Note that the 8- and 24-h plasma samples were prior to the afternoon dose for BID groups and prior to the second day dose for all groups, respectively. See section Quantification of Plasma Brensocatib Concentrations for details.
Blood was collected via the tail-vein technique and centrifuged to separate and collect the plasma. The resulting plasma samples were stored at −20°C or lower until LC-MS/MS analysis.
The plasma concentration of brensocatib was quantified by liquid chromatography, tandem mass spectrometry (LC-MS/MS), a Sciex API6500 mass spectrometer (SCIEX, Framingham, MA). Two brensocatib stock solutions were prepared, one for the preparation of the 8-point standard (STD) curve spiking solutions and the other for the preparation of the quantitative control spiking solutions (QCs) at three levels. The STD curve and QCs were prepared by 2% spiking from the spiking solutions into mouse or rat plasma. The samples were extracted using a protein precipitation method, where 10 µL of sample was mixed with 100 µL of internal standard working solution (100 ng/mL ^6C13-brensocatib in methanol), vortexed for 5 s, and centrifuged at 21,130 × g at 4°C for 15 min. The supernatant was mixed with an equal volume of water and 10 μL was injected into a Phenomenex Kinetex Biphenyl column (3.0 mm × 50 mm; 2.6 μm; 65°C; 0.8 mL/min) with an elution gradient consisting of mobile phase A (10 mM ammonium formate) and mobile phase B (methanol) over 2 min from 5% to 95% B. The mass spectrometer was equipped with an atmospheric-pressure chemical ionization source operating in positive mode.
Individual plasma concentrations were plotted and the area under the curve (AUC) was calculated using the trapezoid method. The elimination rate constant (k e ) was calculated as the negative natural log of the plasma concentration over time (Eq. 1) starting at the max concentration (C max) after the most recent dose to the last measurable plasma concentration between doses. The calculated k e was used to define the half-life (t 1/2 ) based on Eq. 2; where 0.693 is the natural log of 2 and assumes a first-order reaction. ke=−ln∆C/∆t (1) t1/2=0.693/ke (2)

## Cn1c(=O)oc2ccc(-c3ccc(C[C@@H](C#N)NC(=O)[C@@H]4CNCCCO4)cc3)cc21 [brensocatib]
[1]
  sputum CatG activity: Dose-dependent reductions
[2]; C57BL/6, BALB/c, mouse, oral, mice (both strains), across BID and QD regimens, sparse PK, read-out: half-life (overall) (converted)
  half-life: ~2.5 h
[2]; C57BL/6, mouse, po, 0.5 mg/kg/day, C57BL/6 mice, oral BID, 0.5 mg/kg/day, evening dose, read-out: t1/2, PM dose (converted)
  half-life: 0.63 ± 0.01 h
[2]; C57BL/6, mouse, po, 0.5 mg/kg/day, C57BL/6 mice, oral BID, 0.5 mg/kg/day, morning dose, read-out: t1/2, AM dose (converted)
  half-life: 0.71 ± 0.23 h
[2]; C57BL/6, mouse, po, 0.75 mg/kg/day, C57BL/6 mice, oral QD, 0.75 mg/kg/day, read-out: t1/2, AM dose (converted)
  half-life: 9.62 ± 0.95 h
[2]; C57BL/6, mouse, po, 2 mg/kg/day, C57BL/6 mice, oral BID, 2 mg/kg/day, evening dose, read-out: t1/2, PM dose (converted)
  half-life: 2.35 ± 0.35 h
[2]; C57BL/6, mouse, po, 2 mg/kg/day, C57BL/6 mice, oral BID, 2 mg/kg/day, morning dose, read-out: t1/2, AM dose (converted)
  half-life: 2.07 ± 0.42 h
[2]; C57BL/6, mouse, po, 3 mg/kg/day, C57BL/6 mice, oral QD, 3 mg/kg/day, read-out: t1/2, AM dose (converted)
  half-life: 6.38 ± 0.56 h
[2]; C57BL/6, mouse, po, 20 mg/kg/day, C57BL/6 mice, oral BID, 20 mg/kg/day, evening dose, read-out: t1/2, PM dose (converted)
  half-life: 2.36 ± 0.05 h
[2]; C57BL/6, mouse, po, 20 mg/kg/day, C57BL/6 mice, oral BID, 20 mg/kg/day, morning dose, read-out: t1/2, AM dose (converted)
  half-life: 2.41 ± 0.42 h
[2]; C57BL/6, mouse, po, 30 mg/kg/day, C57BL/6 mice, oral QD, 30 mg/kg/day, read-out: t1/2, AM dose (converted)
  half-life: 3.01 ± 0.18 h
[2]; mouse, C57BL/6 mice, oral BID, 0.5 mg/kg/day, read-out: AUC0–24h
  AUC(0-t): 294 ± 49 ng·h/mL
[2]; mouse, C57BL/6 mice, oral BID, 0.5 mg/kg/day, read-out: AUC(0–24)
  AUC(0-t): 0.7 ± 0.12 µM·h
[2]; mouse, C57BL/6 mice, oral BID, 2 mg/kg/day, read-out: AUC0–24h
  AUC(0-t): 2010 ± 154 ng·h/mL
[2]; mouse, C57BL/6 mice, oral BID, 2 mg/kg/day, read-out: AUC(0–24)
  AUC(0-t): 4.79 ± 0.37 µM·h
[2]; mouse, C57BL/6 mice, oral BID, 20 mg/kg/day, read-out: AUC0–24h
  AUC(0-t): 15900 ng·h/mL
[2]; mouse, C57BL/6 mice, oral BID, 20 mg/kg/day, read-out: AUC(0–24)
  AUC(0-t): 37.7 ± 8.33 µM·h
[2]; mouse, C57BL/6 mice, oral QD, 0.75 mg/kg/day, read-out: AUC0–24h
  AUC(0-t): 735 ± 108 ng·h/mL
[2]; mouse, C57BL/6 mice, oral QD, 0.75 mg/kg/day, read-out: AUC(0–24)
  AUC(0-t): 1.75 ± 0.26 µM·h
[2]; mouse, C57BL/6 mice, oral QD, 3 mg/kg/day, read-out: AUC0–24h
  AUC(0-t): 2840 ± 302 ng·h/mL
[2]; mouse, C57BL/6 mice, oral QD, 3 mg/kg/day, read-out: AUC(0–24)
  AUC(0-t): 6.76 ± 0.72 µM·h
[2]; mouse, C57BL/6 mice, oral QD, 30 mg/kg/day, read-out: AUC0–24h
  AUC(0-t): 52600 ng·h/mL
[2]; mouse, C57BL/6 mice, oral QD, 30 mg/kg/day, read-out: AUC(0–24)
  AUC(0-t): 125 ± 16 µM·h
